Assay results as given in patent EP0263202A1, “Inhibition of viral protease activity by peptide halomethyl ketones” (priority 1986, dated 1988).
Residues, ends and D or L forms follow the SMILES beside them.

Assays:
[1] = tested on: subtilisin BPNʹ; conditions: ranking among a series of peptide chloromethyl ketones; cited from earlier work
[2] = tested on: human HeLa-O cells; assay type: cell-based
Protocol: (§1) One assay, known as a viral cleavage assay, involves comparison of patterns of protein synthesis (as visualized by incorporation of labeled amino acids) in virus-infected HeLa cells grown in the presence and absence of a selected test compound. A second assay, known as a plaque inhibition assay, involves an assessment of the effects of test compounds upon the infectivity of virus in agar-overlaid cell cultures. Toxic effects of a test compound, if any, will also be observed during the incubation period of the plaque inhibition assay. Both assays are described in greater detail below.
When plaques in control cultures were large enough to be observed, yet still relatively discrete, all cultures were stained with 1% crystal violet. Plaques appeared as clear areas in a deep purple field of uninfected cells.

[3] = tested on: rhinovirus type 1A; test: plaque inhibition assay; assay type: cell-based, Human rhinovirus type 1A; conditions: HeLa cells, concentration at which activity was noted
Protocol: as §1
In this assay, cultured HeLa cells were grown to confluency in 60 mm plastic petri dishes. Each culture was then infected with approximately 300 plaque-forming units of virus. Human rhinovirus type 1A was used in the test reported below. The virus employed in this experiment was allowed to absorb to the cells for 30 minutes at 34.5°.
The compound tested was dissolved in ethanol at a concentration 100 times greater than the highest concentration to be tested. The resulting solution was then diluted 1:100 into a solution of McCoy's medium containing 5% heat-inactivated fetal calf serum and 0.38% agar. Two-fold dilutions were then made into agar medium. […]

| Compound | inhibition of subtilisin BPNʹ [1] | cytotoxicity first detected at a concentration [2] | Antiviral activity, as scored by 90% plaque reduction [3] [µg/mL] |
| --- | --- | --- | --- |
| acetyl-L-phenyl-alanyl-L-glycyl-L-alanyl-L-leucyl chloromethyl ketone (FGAL; HELM PEPTIDE1{[ac].F.G.A.L.[ClC[*:1]]}$$$$V2.0; SMILES CC(=O)N[C@@H](Cc1ccccc1)C(=O)NCC(=O)N[C@@H](C)C(=O)N[C@@H](CC(C)C)C(=O)CCl) [Ac-Phe-Gly-Ala-LeuCH₂Cl] | fastest inhibitor |  |  |
| CC(C)C[C@H](NC(=O)[C@H](CC(C)C)NC(=O)CNC(=O)[C@H](Cc1ccccc1)NC(=O)OCc1ccccc1)C(=O)CCl [Z-Phe-Gly-Leu-LeuCH₂Cl, N-carbobenzoxy-L-phenylalanyl-L-glycyl-L-leucyl-L-leucine chloromethyl ketone] (HELM PEPTIDE1{[O=C(OCc1ccccc1)[*:2]].F.G.L.L.[ClC[*:1]]}$$$$V2.0) |  | about 15 µg/mL | 1 |
